According to patent US20070037887A1, “Blockade of mtor to prevent a hormonal adaptive response” (University of Virginia Patent Foundation, priority 2003, published 2007):

What was measured:
Shc [1] = assay: E2-induced Shc phosphorylation in MCF-7 cells; type: cell-based, human; settings: 10^−10 M E2 for 3 minutes
Method: Because ERα, Shc and MAP kinase are all involved in E2 action in MCF-7 cells, upstream components responsible for Shc phosphorylation were determined by measuring the effects of PP2, ICI and PD98059 on E2-induced phosphorylation of Shc. In the presence of the inhibitors, MCF-7 cells were stimulated with vehicle or 10^−10 M E2 for 3 minutes and the status of Shc phosphorylation was examined. […] No effects of these inhibitors were apparent in the absence of E2 stimulation. […] Each of these inhibitors was capable of reducing the rate of cell proliferation in LTED cells.

LTED cells [2] = assay: Actin cytoskeleton (phalloidin staining) and ERα localization in LTED cells; type: cell-based, human; settings: 10^−9 M
Excerpt: It has been reported that cell mobility is controlled by a network of membrane initiated signals, such as activation of the Shc-Ras-MAPK pathway. Recently, it was reported that cell focal adhesions are highly dynamic structures. Cells can rapidly respond to the stimulation by growth factors and show reorganization of their cytoskeleton and cell shape. To examine E2 effects on reorganization of the actin cytoskeleton, the distribution of F-actin and also redistribution of the ERα localization in LTED and MCF-7 cells was determined by phalloidin staining. Untreated LTED cells expressed low actin polymerization and a few focal adhesion points. After E2 stimulation in contrast, the cytoskeleton underwent remodeling associated with formation of cellular ruffles, lamellipodias and leading edges, alterations of cell shape and loss of mature focal adhesion points. A subcellular redistribution of ERα to these dynamic membranes upon E2 stimulation represented another important feature of LTED cells. The ER antagonist ICI 182 780 at 10^−9 M blocked E2-induced ruffle formation as well as redistribution of ERα to the membrane with little effect by itself.

mTOR signaling = settings: in cells; cited from earlier work
LTED cells [3] = assay: [3H] thymidine incorporation into DNA, LTED cells; type: cell-based, human; settings: inhibitors of the MAP kinase pathway
Method: FIGS. 5A & 5B represent the effect of FTS on DNA synthesis in MCF-7 (FIG. 5A) and LTED (FIG. 5B) cells. One hundred thousand cells were plated into each well of 24-well plates. Two days later, the cells were re-fed with IMEM containing 5% DCC-FBS. After another two days, cells were treated in quadruplicate with the compounds indicated for 18 hours. [^3H] thymidine (1 μCi/well) was added during the last 2 h of incubation. [^3H] thymidine incorporated into DNA was normalized by protein content.
The inhibitory effect of FTS on cell growth may be the result of inhibition of cellular proliferation, induction of apoptosis, or both. To determine the mechanism by which FTS inhibits cell growth, FTS's effect on DNA synthesis and apoptosis was investigated. […] Estradiol (10^−10 M) increased [^3H] thymidine incorporation by 2.6 fold compared to the control level in MCF-7 cells.

MCF-7 cells = assay: Estradiol dose response of growth, wild type MCF-7 cells; type: cell-based, human; settings: PD 98059 co-administered with TGF alpha
Method: (§1) As further evidence of the role of MAP kinase, PD 98059 was administered to LTED cells and its effect on level of sensitivity to estradiol was examined.
(§2) To investigate whether the MAP and P13 kinase pathways have a role in estradiol induced cell proliferation, the following experiments were conducted. […] Blockade of this effect was obtained with the MAPK inhibitor PD98059. Administration of TGF at a dose of 10 ng/ml caused a 2-log shift to the left in the ability of estradiol to stimulate the growth of wild-type MCF-7 cells. […] Dual inhibition of PI3K with LY40029 and MAPK with U0126 shifted the level of sensitivity to estradiol more dramatically, by more than 2 logs to the right. On the basis of these observations, it is believed that adaptive hypersensitivity involves the joint activation of the PI3K and MAPK pathways.

LTED cells [4] = assay: Estradiol dose response of growth (hypersensitivity), LTED cells; type: cell-based, human; settings: PD 98059 alone
Excerpt: During the phase when tamoxifen first begins to stimulate tumor growth, removal of tamoxifen and administration of very low doses of estradiol stimulates tumor growth. In marked contrast, wild type tumors not exposed to tamoxifen long term are not stimulated by such low doses of estradiol. Taken together, these experiments indicate that either estradiol deprivation or blockade of estrogen action with antiestrogens enhances the level of sensitivity to estrogens or to the estrogenic properties of tamoxifen. This phenomenon of adaptive hypersensitivity is believed to be responsible for the superiority of aromatase inhibitors over tamoxifen in a variety of clinical settings.
as §1
as §2, with “On the basis of these observations, it is believed that adaptive hypersensitivity involves the joint activation of the PI3K and MAPK pathways.” left out

[5] = tested on: hormone dependent breast cancer; settings: women responding initially to tamoxifen then relapsing, crossed over; cited from earlier work
mTOR-raptor complex = assay: Coimmunoprecipitation of raptor with mTOR, compound added to cell extracts or immune complexes; type: binding; settings: caffeine 1 mM, LY294002 10 μM, rapamycin 1 μM plus FKBP12 10 μM, wortmannin 1 μM
Method: 293T cells were transfected with pcDNA3 alone (Vec.) or with a combination of pcDNA3AU1-mTOR, pcDNA33HA-Raptor, and pcDNA33HA-mLST8. Extracts of the cells were incubated with increasing concentrations of FTS before AU1-mTOR was immunoprecipated. Samples of the immune complexes were incubated with [γ-^32P]ATP and recombinant [His^6]PHAS-I, then subjected to SDS-PAGE and transferred to an immobilon membrane. After obtaining a phosphorimage of the membrane to detect ^32P-PHAS-I, the membrane was immunoblotted with PThr^36/45 antibodies. Other samples of the immune complexes were subjected to SDS-PAGE and immunoblots were prepared with antibodies to the HA epitope or to mTOR (see FIG. 13A). Extracts of nontransfected 293T cells were incubated with increasing concentrations of FTS before mTOR was immunoprecipated with mTAb1. A control immunoprecipitation was conducted using nonimmune IgG (NI). Immune complexes were subjected to SDS-PAGE and immunoblots were prepared with antibodies to mLST8, mTOR, and raptor.
Samples of extracts from 293T cells overexpressing AU1-mTOR, HA-raptor, and HA-mLST8 were incubated for 1 h with increasing concentrations of FTS (●, ▴, ▪) or GTS (∘, Δ, □) before immunoprecipitations were conducted with anti-AU1 antibodies. mTOR kinase activity (●, ∘) was determined by measuring ^32P incorporation into [His^6]PHAS-I in immune complex kinases assays performed with [γ-^32P]ATP (see FIG. 14A). The relative amounts of HA-raptor (▴, Δ) and HA-mLST8 (▪, □) that coimmunoprecipitated with AU1-mTOR were determined after immunoblotting with anti-HA antibodies (see FIG. 14B). The results (mean values+S.E. from 5 experiments) are expressed as percentages of the mTOR activity (FIG. 14A) or coimmunoprecipitating proteins (FIG. 14B) from samples incubated without FTS or GTS, and have been corrected for the amounts of AU1-mTOR immunoprecipitated.
293T cells were transfected with pcDNA3 alone (Vec.) or with a combination of pcDNA3AU1-mTOR, pcDNA33HARaptor, and pcDNA33HA-mLST8. AU1-mTOR was immunoprecipitated and samples of the washed immune complexes were at incubated […] for 30 min with no inhibitors or with the following: caffeine (1 mM), FTS (50 μM), LY294002 (10 μM), rapamycin (1 μM) plus FKBP12 (10 μM), and 1 μM wortmannin. To prevent destruction of wortmannin, incubations were conducted in the absence of thiol reducing agents. Samples of the immune complexes were incubated for 10 min with 10 mM MnCl2, 1 mM [γ-^32P]ATP, and 50 μg/ml [His^6]PHAS-I to assess mTOR activity. Other samples were rinsed twice, subjected to SDS-PAGE, and immunoblotted with anti-HA and anti-AU1 antibodies to determine the amounts of HA-raptor and HA-mLST8 associated with AU1-mTOR. The relative amounts of ^32P incorporated into PHAS-I were determined by phosphorimaging (see FIG. 15B).

MAP kinase = MAP kinase activation in LTED cells; type: cell-based, human
Method: Upregulation of MAP kinase and PI-3-kinase could reflect either a constitutive activation of growth factor receptors, an increase in the endogenous secretion of growth factors, or other mechanisms. Inhibition of MAP kinase with a pure antiestrogen would rule out the possibility of constitutive activation of growth factor receptors or growth factor secretion. Accordingly, the pure anti-estrogen, faslodex (fulvestrant) was administered and the level of activation of MAP kinase in LTED cells was examined.
Estrogen deprivation might trigger activation of a non-genomic, estrogen regulated, MAP kinase pathway which utilizes Shc. […] The addition of E2 stimulated MAP kinase phosphorylation in LTED cells within minutes. The increased MAP kinase phosphorylation by E2 was time and dose-dependent being greatly stimulated at 15 min and remaining elevated for at least 30 min. Maximal stimulation of MAP kinase phosphorylation was at 10^−10 M of E2.

Shc [6] = assay: Shc tyrosine phosphorylation in LTED cells; type: cell-based, human; settings: at 3 min and 15 min respectively
Method: Shc proteins are known to couple tyrosine kinase receptors to the MAPK pathway and activation of Shc involves the phosphorylation of SHC itself. To investigate if the Shc pathway was involved in the rapid action of estradiol in LTED cells, tyrosine phosphorylated proteins were immuno-precipitated and tested for the presence of Shc under E2 treatment. E2 rapidly stimulated Shc tyrosine phosphorylation in a dose and time dependent fashion with a peak at 3 minutes. The pure estrogen receptor antagonist, fulvestrant, blocked E2-induced Shc and MAPK phosphorylation at 3 min and 15 min respectively.

With C[C@]12CC[C@@H]3c4ccc(O)cc4C[C@@H](CCCCCCCCC[S+]([O-])CCCC(F)(F)C(F)(F)F)[C@H]3[C@@H]1CC[C@@H]2O (stereo partly drawn) [ICI 182 780] the “E2-induced Shc phosphorylation” value (Shc [1]) was “effectively inhibited” and the “E2-induced ruffle formation and redistribution of ERα to the membrane” value (LTED cells [2]) was “blocked”.

In the case of CC[C@H](C)[C@@H](CO[C@@H](Cc1ccccc1)C(=O)N[C@@H](CCS(C)(=O)=O)C(=O)OC(C)C)NC[C@@H](N)CS [L-744,832], the “time in which inhibition of mTOR signaling occurs” value (mTOR signaling) is listed as no more than 1.5 h.

In the case of COc1cccc(-c2cc(=O)c3ccccc3o2)c1N [PD98059], the “incorporation of tritiated thymidine into DNA” value (LTED cells [3]) was “block the incorporation”, the “TGF alpha induced left shift in estradiol dose response” value (MCF-7 cells) was “returned to baseline” and the “TGF alpha induced left shift in estradiol dose response” value (MCF-7 cells; listed as PD 98059) was “returned back to baseline”. The “shift to the right of estradiol dose response curves” value (LTED cells [4]) was “approximately one-half log” and the “E2-induced Shc phosphorylation” value (Shc [1]) was “did not influence”.

In the case of CCC1(c2ccc(N)cc2)CCC(=O)NC1=O (stereo not drawn) [aminoglutethimide], the “women with secondary clinical benefit” value [5] is listed as 50%.

With Cn1c(=O)c2c(ncn2C)n(C)c1=O [caffeine, reference compound] the “decrease of the association of AU1-mTOR and HA-raptor” value (mTOR-raptor complex) was “little, if any, effect”.

With C[C@]12CC[C@@H]3c4ccc(O)cc4C[C@@H](CCCCCCCCC[S+]([O-])CCCC(F)(F)C(F)(F)F)[C@H]3[C@@H]1CC[C@@H]2O (stereo partly drawn) [fulvestrant] the “level of activated MAP kinase” value (MAP kinase) was “returned the level of activated MAP kinase back to the level seen in wild type MCF-7 cells” and the “E2-induced Shc and MAPK phosphorylation” value (Shc [6]) was “blocked”.
